Laboratory results published in patent US20240124483A1, “Methods for the Treatment of Fibrotic Disease” (SHY Therapeutics, LLC, priority 2021, published 2024).
Where two headings read alike, the source gives them in different places.

Tests used:
KRas G12D mutant = KRas G12D mutant (Homo sapiens (Human), UniProt P01116, G12D); assay: Ras GTP Binding Domain Inhibition Assay, KRas G12D mutant; details: for inhibition at 20 µM: Table 7; for KRas G12D mutant + SOS: % inh. / KRas G12D mutant: % inh.: 20 uM, Table 8
Method: (§1) A Ras Superfamily Activity Assay (as disclosed in International Application No. PCT/US2018/038613, filed Jun. 20, 2018, which is incorporated by reference in its entirety) was used as a specific assay to evaluate compounds against the following for the following Ras Superfamily proteins: KRas wild type, KRas Q61H mutant, KRas G12C mutant, KRas G12D mutant, Rac-1, and Rho-A.
(§2) Buffer-I: • 25 mM Tris-HCl, pH 7.4 • 27 mM KCl • 137 mM NaCl • 1 mM MgCl2 • 1 mM DTT
(§3) Buffer-II: • 50 mM Tris-HCl, pH 7.0 • 1 mM MgCl2 • 1 mM DTT
(§4) The small GTPases proteins: KRas wild type. KRas Q61H mutant, KRas G12C mutant, KRas G12D mutants, Rac-1, and Rho-A were expressed as His-tagged proteins. In addition, the Guanosine nucleotide Exchange Factor (GEF) Sos protein (residues 556-1049) was expressed as a His-tagged protein. In cells, the guanine nucleotide exchange factor Sos protein promotes activation of Ras proteins by stimulating an exchange of GDP for GTP. The inclusion of Sos to the Ras GTP binding domain inhibition assay may be considered as an alternative representation of physiological cellular conditions for evaluating the inhibitory activity of some of the tested small molecules.
(§5) For the assay, all purified small GTPases proteins were diluted in Buffer-I or Buffer-II to a final concentration of 10-30 μg/mL. 200 μL of each diluted protein was added to a nickel-coated 96-well plate and incubated overnight at 4° C. Then the protein solution was discarded and 200 μL of Buffer-I or Buffer-II was added to each well in the presence of 1% DMSO. Compounds to be tested were added to the protein-coated wells at final concentration of 20 μM, and incubated for 3 hours at room temperature with and without 10-30 μg/mL of Sos added to the final hour of the incubation. When performing IC50 measurements a serial dilution of all tested concentrations was added. Then Cy3-GTP or Cy5-GTP was added to each well to a final concentration of 100 nM. The labeled GTP was incubated for 45 minutes at room temperature. Following GTP incubation, wells were washed 3× in Buffer-I or Buffer-II and 200 μL of Buffer-I or Buffer-II was added to each well. Following washes, the amount of bound labeled-GTP was measured using a SpectraMax M3 (Molecular Devices).

MAPK p38 = MAPK p38 Activation Assay in Panc-1 (western blot); format: cell-based, Human; set-up: key: Y = yes; N = No; details: at 10 μM
Method: Cell lines: Human tumor-derived pancreatic cancer cell line Panc-1 and mouse muscle myoblast C2C12 were purchased from American Type Culture Collection and grown in complete DMEM-High Glucose, supplemented with penicillin (100 U/mL), streptomycin (100 μg/mL), and 10% heat-inactivated FBS at 37° C. in a humidified incubator with 5% CO2.
Method: Cells were plated at 350000 cells/well density in a 12-well plate, allowed 3 hours to adhere to the plate, then starved in the appropriate medium in the presence of 0.5% FBS overnight. The small molecules to be tested were added to the cells in the final concentration of 10 μM in the presence of 0.3% DMSO for 3 hours incubation at 37° C. For IC50 value determination, serial dilutions of compounds were added to cells under the same conditions. Next, Panc-1 cells were stimulated with 10 ng/ml TGF-b1 for 1 hour, and C2C12 cells were stimulated with 10 ng/ml TGF-b1 for 20 minutes (recombinant human TGF-b1, R&D Systems). After stimulation cells were lysed with lysis buffer containing 1% Triton X-100, EDTA, and Halt™ Protease & Phosphatase Inhibitor Cocktail (Thermo Scientific). Protein concentration was assessed by BCA protein assay (Thermo Scientific). Phosphorylation level of MAPK p38 was determined by western blot.
Western blot protocol: Equal amounts of protein (15-50 μg) were separated by SDS-PAGE and transferred to nitrocellulose membranes (Invitrogen by Thermo Fisher Scientific). The membrane was stained with Ponceau S Stain (Boston BioProducts) to verify uniform protein loading. Membranes were blocked with 10% milk and phosphorylation levels of Smad2/Smad3 were assessed by incubating overnight at 4° C. with the following antibody: Phospho-p38 MAPK (Thr180/Tyr182), from Cell Signaling Technology. Then the membranes were incubated with HRP-conjugated secondary antibody (Jackson Immunoresearch, West Grove, PA). Bands were incubated in Amersham ECL Prime Western Blotting Detection Reagent (GE Healthcare) and visualized using the ChemiDoc MP imaging system (Bio-Rad).

KRas G12C mutant = KRas G12C mutant (Homo sapiens (Human), UniProt P01116, G12C); assay: Ras GTP Binding Domain Inhibition Assay, KRas G12C mutant
Method: as §1, §2, §3, §4, §5

Rho-A = Rho-A (Homo sapiens (Human), UniProt P61586); assay: Ras GTP Binding Domain Inhibition Assay, Rho-A
Method: as §1, §2, §3, §4, §5

[1] = + SOS, read-out: KRas G12D mutant + SOS: % inh.
[2] = without SOS, read-out: KRas G12D mutant: % inh.
[3] = + SOS, read-out: KRas G12C mutant + SOS: % inh.
[4] = without SOS, read-out: KRas G12C mutant: % inh.
[5] = + SOS, read-out: Rho-A + SOS: % inh.
[6] = without SOS, read-out: Rho-A: % inh.

Rho-A, sequence (P61586 whole entry, species assumed, the tested form may be a part): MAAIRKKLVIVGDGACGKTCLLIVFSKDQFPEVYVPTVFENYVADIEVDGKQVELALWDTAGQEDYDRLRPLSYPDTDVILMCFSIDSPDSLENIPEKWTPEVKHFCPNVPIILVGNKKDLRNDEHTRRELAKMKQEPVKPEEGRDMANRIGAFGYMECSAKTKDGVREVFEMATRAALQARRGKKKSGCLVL
KRas G12C mutant, sequence (P01116 other isoform, or with tags, fused parts or gaps G12C): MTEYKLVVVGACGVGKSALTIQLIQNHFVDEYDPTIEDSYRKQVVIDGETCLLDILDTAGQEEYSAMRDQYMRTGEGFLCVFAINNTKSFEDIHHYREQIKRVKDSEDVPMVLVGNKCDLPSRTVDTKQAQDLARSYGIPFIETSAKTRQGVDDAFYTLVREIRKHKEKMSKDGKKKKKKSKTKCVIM
KRas G12D mutant, sequence (P01116 other isoform, or with tags, fused parts or gaps G12D): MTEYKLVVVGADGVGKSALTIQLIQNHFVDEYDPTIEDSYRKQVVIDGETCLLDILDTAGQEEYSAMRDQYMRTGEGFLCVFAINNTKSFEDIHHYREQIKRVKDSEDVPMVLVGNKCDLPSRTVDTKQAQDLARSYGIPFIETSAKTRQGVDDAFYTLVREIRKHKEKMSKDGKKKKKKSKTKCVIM

inhibition at 20 µM (KRas G12D mutant; [1]) | KRas G12D mutant + SOS: % inh. (KRas G12D mutant; + SOS) | inhibition at 20 µM (KRas G12D mutant; [2]) | KRas G12D mutant: % inh. (KRas G12D mutant; without SOS) | inhibition at 20 µM (KRas G12C mutant; [3]) | inhibition at 20 µM (KRas G12C mutant; [4]) | inhibition at 20 µM (Rho-A; [5]) | inhibition at 20 µM (Rho-A; [6]) | Compound | Activation of MAPK p38 in PANC-1 (MAPK p38)
26 to 45% | B (B = 26-45% inhibition) | 26 to 45% | B (B = 26-45% inhibition) | 46 to 75% | 26 to 45% | 0% | 0% | COC1CCN(c2nc(-c3nccn3C)nc3sc(-c4ccn(C)n4)c(-c4ccccc4)c23)CC1 [Compound 6, 4-(4-Methoxypiperidin-1-yl)-2-(1-methyl-1H-imidazol-2-yl)-6-(1-methyl-1H-pyrazol-3-yl)-5-phenylthieno[2,3-d]pyrimidine] | N
76 to 100% | D (D = 76-100% inhibition) | 46 to 75% | C (C = 46-75% inhibition) | 76 to 100% | 76 to 100% | 76 to 100% | 76 to 100% | COCCn1ccnc1-c1nc(N[C@H]2C[C@@H](OC)C2)c2c(-c3ccccc3)c(-c3ccn(C)n3)sc2n1 [Compound 13, N-((1s,3s)-3-methoxycyclobutyl)-2-(1-(2-methoxyethyl)-1H-imidazol-2-yl)-6-(1-methyl-1H-pyrazol-3-yl)-5-phenylthieno[2,3-d]pyrimidin-4-amine] | N
46 to 75% | C (C = 46-75% inhibition) | 26 to 45% | B (B = 26-45% inhibition) | 46 to 75% | 46 to 75% | – | 46 to 75% | CO[C@H]1C[C@H](CNc2nc(-c3nccn3C)nc3sc(-c4ccn(C(C)C)n4)c(C)c23)C1 [Compound 16, 6-(1-Isopropyl-1H-pyrazol-3-yl)-N-(((1r,3r)-3-methoxycyclobutyl)methyl)-5-methyl-2-(1-methyl-1H-imidazol-2-yl)thieno[2,3-d]pyrimidin-4-amine] | Y
46 to 75% | C (C = 46-75% inhibition) | 46 to 75% | C (C = 46-75% inhibition) | 76 to 100% | 46 to 75% | – | 46 to 75% | COc1cccc(Nc2nc(-c3nccn3C)nc3sc(-c4ccn(C(C)C)n4)c(C)c23)c1 [Compound 17, 6-(1-Isopropyl-1H-pyrazol-3-yl)-N-(3-methoxyphenyl)-5-methyl-2-(1-methyl-1H-imidazol-2-yl)thieno[2,3-d]pyrimidin-4-amine] | Y
46 to 75% | C (C = 46-75% inhibition) | 76 to 100% | D (D = 76-100% inhibition) | 46 to 75% | 46 to 75% | – | 76 to 100% | COc1cccc(Nc2nc(-c3nccn3C)nc3sc(-c4ccn(C(C)C)n4)c(C)c23)n1 [Compound 18, 6-(1-Isopropyl-1H-pyrazol-3-yl)-N-(6-methoxypyridin-2-yl)-5-methyl-2-(1-methyl-1H-imidazol-2-yl)thieno[2,3-d]pyrimidin-4-amine] | Y

The next lines start with the compound.

Compound | inhibition at 20 µM (KRas G12D mutant; [1]) | KRas G12D mutant + SOS: % inh. (KRas G12D mutant; + SOS) | inhibition at 20 µM (KRas G12D mutant; [2]) | KRas G12D mutant: % inh. (KRas G12D mutant; without SOS) | inhibition at 20 µM (KRas G12C mutant; [3]) | inhibition at 20 µM (KRas G12C mutant; [4]) | inhibition at 20 µM (Rho-A; [5]) | inhibition at 20 µM (Rho-A; [6]) | Activation of MAPK p38 in PANC-1 (MAPK p38)
COCCNc1nc(-c2nccn2C)nc2sc(-c3cccc(OC)c3Cl)c(-c3ccc(OC)cc3)c12 [Compound 7, 6-(2-Chloro-3-methoxyphenyl)-N-(2-methoxyethyl)-5-(4-methoxyphenyl)-2-(1-methyl-1H-imidazol-2-yl)thieno[2,3-d]pyrimidin-4-amine] | 26 to 45% | B (B = 26-45% inhibition) | 26 to 45% | B (B = 26-45% inhibition) | 76 to 100% | 26 to 45% | 46 to 75% | 26 to 45% | Y
COCCNc1nc(-c2cn(C)cn2)nc2sc(-c3cccc(OC)c3Cl)c(-c3ccc(OC)cc3)c12 [Compound 8, 6-(2-Chloro-3-methoxyphenyl)-N-(2-methoxyethyl)-5-(4-methoxyphenyl)-2-(1-methyl-1H-imidazol-4-yl)thieno[2,3-d]pyrimidin-4-amine] | 26 to 45% | B (B = 26-45% inhibition) | 26 to 45% | B (B = 26-45% inhibition) | 76 to 100% | 26 to 45% | 46 to 75% | 46 to 75% | Y
COCCNc1nc(-c2nccn2C)nc2sc(-c3cccc(OC)c3Cl)c(-c3ccccc3)c12 [Compound 9, 6-(2-Chloro-3-methoxyphenyl)-N-(2-methoxyethyl)-2-(1-methyl-1H-imidazol-2-yl)-5-phenylthieno[2,3-d]pyrimidin-4-amine] | 46 to 75% | C (C = 46-75% inhibition) | 46 to 75% | C (C = 46-75% inhibition) | 76 to 100% | 26 to 45% | 26 to 45% | 26 to 45% | Y
COc1cc(Nc2nc(-c3nccn3C)nc3sc(-c4ccn(C(C)C)n4)c(C)c23)ncn1 [Compound 19, 6-(1-Isopropyl-1H-pyrazol-3-yl)-N-(6-methoxypyrimidin-4-yl)-5-methyl-2-(1-methyl-1H-imidazol-2-yl)thieno[2,3-d]pyrimidin-4-amine] | 46 to 75% | C (C = 46-75% inhibition) | 26 to 45% | B (B = 26-45% inhibition) | 76 to 100% | 46 to 75% | – | 76 to 100% | Y
COCCOCCNc1nc(-c2nccn2C)nc2sc(-c3ccn(C(C)C)n3)c(C)c12 [Compound 21, 6-(1-Isopropyl-1H-pyrazol-3-yl)-N-(2-(2-methoxyethoxy)ethyl)-5-methyl-2-(1-methyl-1H-imidazol-2-yl)thieno[2,3-d]pyrimidin-4-amine] | 76 to 100% | D (D = 76-100% inhibition) | 76 to 100% | D (D = 76-100% inhibition) | 76 to 100% | 46 to 75% | – | 76 to 100% | Y
